# According to patent US8609667B2, “E-type phenyl acrylic ester compounds containing substituted anilino pyrimidine group and uses thereof” (Sinochem Corporation, priority 2009, dated 2013):
# Read-outs that look alike come from different tables or passages of the source.
# What was measured:
# [1] = system: adults of Tetranychus cinnabarinus; assay: Acaricidal activity against adults in greenhouse (spray on broadbean shoots, mortality after 72 hrs); assay type: in vivo; conditions: for control against adults of Tetranychus cinnabarinus: spray, 72 hrs
# Experimental: (§1) The activity determinations of compounds of the present invention against adults, nymphs and eggs of Tetranychus cinnabarinus were carried out in greenhouse by the following procedures:
# The activity determination against adults in greenhouse: the compounds were weighed and dissolved in acetone to obtain mother liquid, and then the mother liquid was diluted to required concentration with placed running water containing 0.1% of Tween 80. Broadbean shoots with two true leaves were used to inoculate adults of Tetranychus cinnabarinus which were counted, spraying treatment was performed by portable sprayer (DeVilbiss Atomizer M163), 3 replicates were set for each treatment. After treatment the broadbean shoots were maintained in standard observation room. Scores were conducted and mortalities were calculated after 72 hrs.
# [2] = system: citrus red mite; assay: Field trial against citrus red mite (Guilin, China); assay type: in vivo
# Experimental: Field Trial Against Citrus Red Mite (Guilin, China)
# The trial was carried out in a 2-year-old Shatang orange orchard in Chaotian town lingchuan county guilin city, trifoliate orange trees were selected as stocks, the intervals between two plants was 1.5×2.5 m, the average height was 1.45 m and the crown width was 1.30 m. Two trees were selected in each plot, with random arrangement and 4 replications. Compound 9 (15% SC) was set at two different doses (100 mg/L and 25 mg/L), and spirodiclofen (24% SC) was set at one dose (48 mg/L). Matabi Supergreen 16 Knapsack Sprayer 16 Liter was used to spray evenly with 2 L of spaying volume for each plant. The plants were treated once on 30 Oct. 2009, at that time, adults, nymphs and eggs of citrus red mite all existed, with adults/eggs=1/1.27. During the day the plants were treated, and the weather was good with the average temperature at 23° C. The first three days after treatment were all clear days. The number of mites was investigated before treatment and on the 1st, 3rd, 10th, 15th, 20th and 30th day after treatment respectively. Two trees of each plot were investigated according to the five directions of the tree crown (east, south, west, north and central), 5 leaves in each direction were investigated to calculate the number of living mites, with 50 leaves each plot. The decline rate of mite population and corrected efficacy were calculated according to formulas below: The decline rate of mite population(%)=[(the average number of mite on each leaf before treatment−the average number of mite on each leaf after treatment)/the average number of mite on each leaf before treatment]×100. Corrected efficacy(%)=[(the decline rate of mite population in treated area−the decline rate of mite population in untreated area)/(100−the decline rate of mite population in untreated area)]×100.
# [3] = system: nymphs of Tetranychus cinnabarinus; assay: Acaricidal activity against nymphs in greenhouse (spray, mortality after 72 hrs); assay type: in vivo
# Experimental: as §1
# The activity determination against nymphs in greenhouse: broadbean shoots with two true leaves in pot were taken, ten healthy female adults of Tetranychus cinnabarinus were inoculated to the leaves, the adults were removed after 24 hrs and the eggs were cultivated into nymphs after 7-10 days. The nymphs were counted and then sprayed. 3 replicates were set for each treatment. And then were maintained in standard observation room. Scores were conducted and mortalities were calculated after 72 hrs.
# [4] = system: eggs of Tetranychus cinnabarinus; assay: Activity against eggs in greenhouse (hatching inhibition rate); assay type: in vivo; conditions: Tetranychus cinnabarinus
# Experimental: as §1
# The activity determination against eggs in greenhouse: Broadbean shoots in pot with one true leaf retained were taken, ten healthy female adults of Tetranychus cinnabarinus were inoculated to the leaves, the adults were removed after 24 hrs and the eggs were counted and then sprayed. The treatment of test compounds and spaying method were the same as that of the activity determination in greenhouse against adults. Once eggs of blank control were all hatched after 5 days, unhatched eggs in each treatment were investigated and the hatching inhibition rate were calculated.
structure (smiles),measurement,setting,value
CO/C=C(/C(=O)OC)c1ccccc1COc1cc(C(F)(F)F)nc(Nc2ccc(Cl)cc2Cl)n1 [Compound 9],mortality at 0.625 µg/mL,"[1]; Tetranychus cinnabarinus, 0.625 mg/L, Table 7, read-out: mortalities of adults of Tetranychus cinnabarinus (%)",88%
same,mortality at 1.25 µg/mL,"[1]; Tetranychus cinnabarinus, 1.25 mg/L, Table 7, read-out: mortalities of adults of Tetranychus cinnabarinus (%)",90%
same,mortality at 2.5 µg/mL,"[1]; Tetranychus cinnabarinus, 2.5 mg/L, Table 7, read-out: mortalities of adults of Tetranychus cinnabarinus (%)",98%
same,mortality at 5 µg/mL,"[1]; Tetranychus cinnabarinus, 5 mg/L, Table 7, read-out: mortalities of adults of Tetranychus cinnabarinus (%)",100%
same,mortality at 10 µg/mL,"[1]; Tetranychus cinnabarinus, 10 mg/L, Table 7, read-out: mortalities of adults of Tetranychus cinnabarinus (%)",100%
same,mortality at 40 µg/mL,"[1]; Tetranychus cinnabarinus, 40 mg/L, Table 7, read-out: mortalities of adults of Tetranychus cinnabarinus (%)",100%
same,control against adults of Tetranychus cinnabarinus,[1]; dose 5 mg/L,100%
same,control against adults of Tetranychus cinnabarinus,[1]; dose 10 mg/L,100%
same,control against adults of Tetranychus cinnabarinus,[1]; dose 40 mg/L,100%
same,control against adults of Tetranychus cinnabarinus,[1]; dose 100 mg/L,100%
same,Corrected efficacy (%),"[2]; 25 mg/L (15% SC), the 1st day after treatment",90%
same,Corrected efficacy (%),"[2]; 25 mg/L (15% SC), the 3rd day after treatment",92%
same,Corrected efficacy (%),"[2]; 25 mg/L (15% SC), the 10th day after treatment",83%
same,Corrected efficacy (%),"[2]; 25 mg/L (15% SC), the 15th day after treatment",91%
same,Corrected efficacy (%),"[2]; 25 mg/L (15% SC), the 20th day after treatment",92%
same,Corrected efficacy (%),"[2]; 25 mg/L (15% SC), the 30th day after treatment",91%
same,Corrected efficacy (%),"[2]; 100 mg/L (15% SC), the 1st day after treatment",92%
same,Corrected efficacy (%),"[2]; 100 mg/L (15% SC), the 3rd day after treatment",96%
same,Corrected efficacy (%),"[2]; 100 mg/L (15% SC), the 10th day after treatment",96%
same,Corrected efficacy (%),"[2]; 100 mg/L (15% SC), the 15th day after treatment",95%
same,Corrected efficacy (%),"[2]; 100 mg/L (15% SC), the 20th day after treatment",97%
same,Corrected efficacy (%),"[2]; 100 mg/L (15% SC), the 30th day after treatment",94%
same,control against nymphs of Tetranychus cinnabarinus,[3]; dose 0.63 mg/L,more than 95%
same,control against nymphs of Tetranychus cinnabarinus,[3]; dose 2.5 mg/L,100%
same,inhibition at 0.625 µg/mL,"[4]; 0.625 mg/L, Table 8, read-out: hatching inhibition rate against eggs (%)",20%
same,inhibition at 2.5 µg/mL,"[4]; 2.5 mg/L, Table 8, read-out: hatching inhibition rate against eggs (%)",100%
same,inhibition at 10 µg/mL,"[4]; 10 mg/L, Table 8, read-out: hatching inhibition rate against eggs (%)",100%
same,inhibition at 2.5 µg/mL,"[4]; dose 2.5 mg/L, read-out: hatching inhibition rate against eggs of Tetranychus cinnabarinus",≥ 90%
same,inhibition at 10 µg/mL,"[4]; dose 10 mg/L, read-out: hatching inhibition rate against eggs of Tetranychus cinnabarinus",100%
CO/C=C(/C(=O)OC)c1ccccc1COc1nc(Nc2ccc(F)cc2F)nc2c1CCC2 [Compound 96],melting point,,106 to 108 °C
CO/C=C(/C(=O)OC)c1ccccc1COc1nc(Nc2ccc(Cl)cc2Cl)nc2c1CCC2 [Compound 97],melting point,,150 to 151 °C
CO/C=C(/C(=O)OC)c1ccccc1COc1nc(Nc2ccc(F)c(F)c2F)nc2c1CCC2 [Compound 103],melting point,,118 to 120 °C
CO/C=C(/C(=O)OC)c1ccccc1COc1nc(Nc2ccc(Cl)c(C)c2Cl)nc2c1CCC2 [Compound 105],melting point,,150 to 151 °C
CO/C=C(/C(=O)OC)c1ccccc1COc1nc(Nc2cccc(Cl)c2Cl)nc2c1CCC2 [Compound 128],melting point,,132 to 134 °C
